# In US9000125B2, “Approach to treat intraocular hypertension” (priority 2006, dated 2015):
# No end group written: not given here.
# System: intraocular pressure (IOP) of the rabbit eye
# Assay: IOP (TonoPen) in anaesthetized normal NZW rabbits after deposition/injection beneath the Tenon's capsule
# Conditions: Example 9; 50 or 100 μg below the Tenon's capsule
substance,measurement,value
CHSKTR [CHSKTR],local or systemic side effects,without inducing any local or systemic side effects
